Laboratory results taken from patent publication US11957680B2, “Pyruvate kinase activators for use in treating blood disorders” (Agios Pharmaceuticals, Inc., priority 2017, dated 2024).

Legend:
PKR K410E = PKR K410E (Homo sapiens, UniProt P30613, K410E); assay: PKR mutant assay (K410E), AC50, LDH/NADH-coupled, absorbance at 340 nm; format: biochemical; conditions: for EC50: Table 4, AC50, enzyme assay; for AC50: Table 2, enzyme assay
In short: (§1)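 Enzyme amount (40-400 ng/well) and substrate levels vary by PKR variant. The coupled read-out uses LDH (0.5 units) consuming NADH, tracked at 340 nm at room temperature after ADP initiation, following a one-hour compound preincubation.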

wild type PKR [1] = molecular target: T1, wild type PKR (Homo sapiens, UniProt P30613); assay: Cell based ATP assay in purified red blood cells (Cell-Titer-Glo); design: endogenous in cells; host or cells: purified red blood cells from healthy volunteers; conditions: overnight at 37° C., ATP levels; for AC50 / Cell based ATP assay AC50: Table 2, RBCs
In short: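 RBCs from healthy human donors' K2EDTA blood were leukocyte-depleted by filtration and resuspended in AGAM (PBS, 1% glucose, adenine, mannitol). Cells at 1×10^7 cells/mL were incubated overnight at 37 °C with serially diluted compound at 0.1% DMSO, and ATP was read by Cell-Titer-Glo luminescence.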

wild type PKR [2] = molecular target: T1, wild type PKR; assay: PKR (wild type) enzyme AC50 assay, LDH/NADH-coupled, absorbance at 340 nm; format: biochemical; conditions: for EC50: Table 4, AC50, enzyme assay, read-out: PKR WT; for AC50: read-out: PKR WT AC50
In short: as §1

PKR R510Q = PKR R510Q (Homo sapiens, UniProt P30613, R510Q); assay: PKR mutant assay (R510Q), AC50, LDH/NADH-coupled, absorbance at 340 nm; format: biochemical; conditions: for EC50: Table 4, AC50, enzyme assay, read-out: PK R510Q; for AC50: read-out: PK R510Q AC50
In short: as §1

T1 sequence (P30613 whole entry): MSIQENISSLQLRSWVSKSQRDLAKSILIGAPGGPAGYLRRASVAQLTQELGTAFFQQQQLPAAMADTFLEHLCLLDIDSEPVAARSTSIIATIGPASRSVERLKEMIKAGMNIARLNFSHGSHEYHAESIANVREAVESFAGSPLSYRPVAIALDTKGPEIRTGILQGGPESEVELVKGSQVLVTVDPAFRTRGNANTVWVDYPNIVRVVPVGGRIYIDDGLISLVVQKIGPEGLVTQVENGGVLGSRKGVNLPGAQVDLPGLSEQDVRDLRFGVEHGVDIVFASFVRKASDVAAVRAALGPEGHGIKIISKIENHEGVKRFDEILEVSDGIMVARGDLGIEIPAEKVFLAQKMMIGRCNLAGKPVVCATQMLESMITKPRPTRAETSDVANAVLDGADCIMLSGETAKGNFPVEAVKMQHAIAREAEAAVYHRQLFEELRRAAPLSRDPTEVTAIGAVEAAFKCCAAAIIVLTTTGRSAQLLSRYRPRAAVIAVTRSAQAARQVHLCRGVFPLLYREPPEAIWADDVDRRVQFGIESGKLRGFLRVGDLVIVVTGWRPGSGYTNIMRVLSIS
Chain of PKR R510Q (P30613 whole entry R510Q): as the sequence (P30613 whole entry) above, with R510Q counted along it
Chain of PKR K410E (P30613 whole entry K410E): as the sequence (P30613 whole entry) above, with K410E counted along it

Row | SMILES | AC50 (PKR K410E) [nM] | AC50 (wild type PKR [1]) [nM] | AC50 (wild type PKR [2]; Table 2, enzyme assay) [nM] | AC50 (PKR R510Q; Table 2, enzyme assay) [nM] | also measured
1 | Cn1c2nc(Cc3ncsc3Br)sc2c2cnn(Cc3cccc4[nH]ncc34)c(=O)c21 [Compound 220] | – | – | – | – | EC50 (PKR K410E): < 300 nM; EC50 (wild type PKR [1]; Table 4, AC50, RBCs): ≤ 1000 nM; EC50 (wild type PKR [2]): < 300 nM; EC50 (PKR R510Q): < 300 nM
2 | COc1ccccc1Cn1ncc2c3sc(C)nc3n(C)c2c1=O [Compound 8] | 301 to 800 | > 1000 | > 800 | 301 to 800 | –
3 | Cn1c2nc(C#N)sc2c2cnn(Cc3cccc4[nH]ncc34)c(=O)c21 [Compound 84] | 301 to 800 | > 1000 | < 300 | 301 to 800 | –
4 | CN(c1csc(Cc2cnc(=O)[nH]c2)n1)c1ccnn(Cc2cccc3[nH]ncc23)c1=O [Compound 208] | – | – | – | – | EC50 (PKR K410E): > 800 nM; EC50 (wild type PKR [1]; Table 4, AC50, RBCs): > 1000 nM; EC50 (wild type PKR [2]): > 800 nM; EC50 (PKR R510Q): > 800 nM
5 | Cn1c2nc(Cc3n[nH]cc3Cl)sc2c2cnn(Cc3cccc4[nH]ncc34)c(=O)c21 [Compound 244] | – | – | – | – | EC50 (PKR K410E): < 300 nM; EC50 (wild type PKR [1]; Table 4, AC50, RBCs): ≤ 1000 nM; EC50 (wild type PKR [2]): < 300 nM; EC50 (PKR R510Q): < 300 nM
6 | Cc1nc2c(s1)c1cnn(Cc3ccc([N+](=O)[O-])cc3)c(=O)c1n2C [Compound 48] | > 800 | – | – | > 800 | Cell based ATP assay AC50 (wild type PKR [1]): No Fit; PKR WT AC50 (wild type PKR [2]; Table 2, enzyme assay): No Fit
7 | Cn1c2nc(Cc3ncsc3C(N)=O)sc2c2cnn(Cc3cccc4[nH]ncc34)c(=O)c21 [Compound 196] | – | – | – | – | EC50 (PKR K410E): < 300 nM; EC50 (wild type PKR [1]; Table 4, AC50, RBCs): ≤ 1000 nM; EC50 (wild type PKR [2]): < 300 nM; EC50 (PKR R510Q): < 300 nM
8 | Cc1nc2c(s1)c1cnn(Cc3ccc4[nH]ncc4c3)c(=O)c1n2C [Compound 29] | < 300 | > 1000 | < 300 | < 300 | –
9 | Cc1nc2c(s1)c1cnn(Cc3cccc(N)n3)c(=O)c1n2C [Compound 74] | < 300 | ≤ 1000 | < 300 | < 300 | –
10 | Cc1nc2c(s1)c1cnn(Cc3cccc(CO)c3)c(=O)c1n2C [Compound 45] | < 300 | ≤ 1000 | < 300 | < 300 | –
11 | Cn1c2nc(Cc3cc[nH]n3)sc2c2cnn(Cc3cccc4c3NS(=O)(=O)N4)c(=O)c21 [Compound 275] | – | – | – | – | EC50 (PKR K410E): > 800 nM; EC50 (wild type PKR [1]; Table 4, AC50, RBCs): > 1000 nM; EC50 (wild type PKR [2]): > 800 nM; EC50 (PKR R510Q): > 800 nM
12 | Cn1c2nc(Cc3cc[nH]n3)sc2c2cnn(Cc3cccc4[nH]ncc34)c(=O)c21 [Compound 81] | < 300 | ≤ 1000 | < 300 | < 300 | –
13 | Cn1c2nc(Cc3cc[nH]n3)sc2c2cnn(Cc3ccc4ccccc4c3)c(=O)c21 [Compound 210] | – | – | – | – | EC50 (PKR K410E): < 300 nM; EC50 (wild type PKR [1]; Table 4, AC50, RBCs): ≤ 1000 nM; EC50 (wild type PKR [2]): < 300 nM; EC50 (PKR R510Q): < 300 nM
14 | Cn1c2nc([S+](C)[O-])sc2c2cnn(Cc3cccc4[nH]ncc34)c(=O)c21 (centres unmarked) [Compound 71] | 301 to 800 | ≤ 1000 | 301 to 800 | 301 to 800 | –
15 | Cn1c2nc(C(O)(C(N)=O)c3ccccc3)sc2c2cnn(Cc3cccc4[nH]ncc34)c(=O)c21 (centres unmarked) [Compound 152] | < 300 | ≤ 1000 | 301 to 800 | 301 to 800 | –
16 | COc1cccc(Cn2ncc3c4sc(S(C)(=O)=O)nc4n(C)c3c2=O)c1 [Compound 25] | < 300 | > 1000 | < 300 | < 300 | –
17 | COc1cccc(Cn2ncc3c4sc(C(C)O)nc4n(C)c3c2=O)c1 (centres unmarked) [Compound 52] | < 300 | ≤ 1000 | < 300 | < 300 | –
18 | COc1cccc(Cn2ncc3c4sc(C)nc4n(C)c3c2=O)n1 [Compound 27] | 301 to 800 | ≤ 1000 | < 300 | 301 to 800 | –
19 | Cn1ccc(Cn2ncc3c4sc(CCc5cc[nH]n5)nc4n(C)c3c2=O)n1 [Compound 393] | – | – | – | – | EC50 (PKR K410E): < 300 nM; EC50 (wild type PKR [1]; Table 4, AC50, RBCs): ≤ 1000 nM; EC50 (wild type PKR [2]): < 300 nM; EC50 (PKR R510Q): < 300 nM
20 | COc1cccc(Cn2ncc3c4sc(CC5CCCCC5)nc4n(C)c3c2=O)c1 [Compound 50] | > 800 | – | > 800 | > 800 | Cell based ATP assay AC50 (wild type PKR [1]): No Fit
21 | Cn1c2nc(Cn3ccnc3)sc2c2cnn(Cc3cccc(C(N)=O)c3)c(=O)c21 [Compound 390] | – | – | – | – | EC50 (PKR K410E): > 800 nM; Cell based ATP assay (wild type PKR [1]; Table 4, AC50, RBCs): No Fit; EC50 (wild type PKR [2]): > 800 nM; EC50 (PKR R510Q): > 800 nM
22 | CC(=O)NCc1nc2c(s1)c1cnn(Cc3cccc4[nH]ncc34)c(=O)c1n2C [Compound 139] | < 300 | ≤ 1000 | < 300 | < 300 | –
23 | CC(=O)c1cccc(CC(c2cc[nH]n2)c2nc3c(s2)c2cnn(Cc4cccc(C(C)=O)c4)c(=O)c2n3C)c1 (centres unmarked) [Compound 192] | – | – | – | – | EC50 (PKR K410E): > 800 nM; EC50 (wild type PKR [1]; Table 4, AC50, RBCs): > 1000 nM; EC50 (wild type PKR [2]): > 800 nM; EC50 (PKR R510Q): > 800 nM
24 | Cc1nc2c(s1)c1cnn(Cc3cccc(C(N)=O)c3)c(=O)c1n2C [Compound 395] | – | – | – | – | EC50 (PKR K410E): 301 to 800 nM; EC50 (wild type PKR [1]; Table 4, AC50, RBCs): > 1000 nM; EC50 (wild type PKR [2]): > 800 nM; EC50 (PKR R510Q): > 800 nM

More lines, main results first:

Row | AC50 (PKR K410E) [nM] | AC50 (wild type PKR [1]) [nM] | AC50 (wild type PKR [2]; Table 2, enzyme assay) [nM] | AC50 (PKR R510Q; Table 2, enzyme assay) [nM] | SMILES | also measured
25 | < 300 | > 1000 | 301 to 800 | < 300 | Cn1c2nc(CC(N)=O)sc2c2cnn(Cc3cccc4[nH]ncc34)c(=O)c21 [Compound 137] | –
26 | < 300 | ≤ 1000 | < 300 | < 300 | Cn1ccc(Cc2nc3c(s2)c2cnn(Cc4cccc5[nH]ncc45)c(=O)c2n3C)n1 [Compound 157] | –
27 | < 300 | ≤ 1000 | 301 to 800 | < 300 | Cn1c2nc(Cc3ccc4cn[nH]c4c3)sc2c2cnn(Cc3cccc4[nH]ncc34)c(=O)c21 [Compound 156] | –
28 | 301 to 800 | ≤ 1000 | 301 to 800 | 301 to 800 | Cn1c2nc(Cc3cc(C(F)(F)F)[nH]n3)sc2c2cnn(Cc3cccc4[nH]ncc34)c(=O)c21 [Compound 160] | –
29 | < 300 | ≤ 1000 | < 300 | < 300 | COc1ccc(Cc2nc3c(s2)c2cnn(Cc4cccc5[nH]ncc45)c(=O)c2n3C)cn1 [Compound 173] | –
30 | < 300 | ≤ 1000 | < 300 | < 300 | Cn1c2nc(C(C(N)=O)c3ccccc3)sc2c2cnn(Cc3cccc4[nH]ncc34)c(=O)c21 (centres unmarked) [Compound 127] | –
31 | > 800 | – | > 800 | – | Cn1c2nc(Nc3ccccc3)sc2c2cnn(Cc3cccc4[nH]ncc34)c(=O)c21 [Compound 135] | Cell based ATP assay AC50 (wild type PKR [1]): No Fit; PK R510Q AC50 (PKR R510Q; Table 2, enzyme assay): No Fit
32 | < 300 | ≤ 1000 | < 300 | < 300 | Cn1c2nc(C(O)c3cc[nH]n3)sc2c2cnn(Cc3cccc4[nH]ncc34)c(=O)c21 (centres unmarked) [Compound 148] | –
33 | < 300 | ≤ 1000 | < 300 | < 300 | Cn1c2nc(Cc3ccccc3)sc2c2cnn(Cc3cccc4[nH]ncc34)c(=O)c21 [Compound 91] | –
34 | > 800 | > 1000 | < 300 | < 300 | C=Cc1nc2c(s1)c1cnn(Cc3cccc4[nH]ncc34)c(=O)c1n2C [Compound 104] | –
35 | < 300 | ≤ 1000 | < 300 | < 300 | COc1cccc(Cc2nc3c(s2)c2cnn(Cc4cccc5[nH]ncc45)c(=O)c2n3C)n1 [Compound 169] | –
